Assay results reported in patent publication US20090076130A1, “COMPOUNDS FOR THE INHIBITION OF HISTONE DEACETYLASE” (NATUREWISE BIOTECH & MEDICALS CORPORATION, priority 2007, published 2009).

Experiments:
SMN2 protein = details: fibroblast cells derived from SMA patients, 64 hours of treatment; cited from earlier work
cyclin D1 = details: MCF-7 breast cancer cells; cited from earlier work
[1] = system: human breast MCF-7 cancer cells; experiment: Growth and morphology of breast cancer MCF-7 cells; assay type: cell-based
Method: The breast cancer MCF-7 cells, were cultured in Dulbecco's modified Eagle's medium (DMEM; Gibco) supplemented with penicillin G, streptomycin sulphate, 0.5 mM of L-glutamine and 10% fetal bovine serum (FBS; Gibco) at 37° C., 5% CO2 and 95% relative humidity. The cells were seeded at a density of 3×10^5 per well of 6-well plates. After 24 hours, the cells were treated with different concentrations of compound NBM-HD-1 and 4 mM sodium butyrate being used as the positive control. The cells were observed after 48 hours and counted after 96 hours. […] In FIG. 8(A), after the cells were incubated with 2.5 μg/mL (FIG. 8(A)-b), 5 μg/mL (FIG. 8(A)-c) and 10 μg/mL (FIG. 8(A)-d) of NBM-HD-1 for 48 hours, the density of MCF-7 cells reduced dramatically in comparison with that of the control group (FIG. 8(A)-a). The morphology of the MCF-7 cells in the experimental group changed in comparison with that in the control group. […] The results of the cell counting (FIG. 8(B)) indicate that, similar to sodium butyrate, NBM-HD-1 inhibits cell growth.
MCF-7 cancer cells were seeded at a density of 3×10^5 per well in 6-well plates. After 24 hours, the cells were treated with different concentrations of compound NBM-HD-2 and 4 mM sodium butyrate being used as the positive control. The cells were observed and counted after 72 hours. […] In FIG. 13(A), after the cells were incubated with 2.5 μg/mL (FIG. 13(A)-c), 5 μg/mL (FIG. 13(A)-d), 7.5 μg/mL (FIG. 13(A)-e) and 10 μg/mL (FIG. 13(A)-f) of NBM-HD-2 for 72 hours, the density of MCF-7 cells reduced dramatically in comparison with that of the control group (FIG. 13(A)-a). The morphology of the MCF-7 cells in the experimental group changed in comparison with that in the control group.
MCF-7 cancer cells were seeded at a density of 3×10^5 per well of 6-well plates. After 24 hours, the cells were treated with different concentrations of compound NBM-HD-3 and 4 mM sodium butyrate, which was being used as the positive control. The cells were observed and counted after 72 hours. […] In FIG. 14(A), after the cells were incubated with 2.5 μg/mL (FIG. 14(A)-c), 5 μg/mL (FIG. 14(A)-d), 7.5 μg/mL (FIG. 14(A)-e) and 10 μg/mL (FIG. 14(A)-f) of NBM-HD-3 for 72 hours, the density of MCF-7 cells reduced dramatically in comparison with that of the control group (FIG. 14(A)-a). The morphology of the MCF-7 cells in the experimental group changed in comparison with that in the control group. […] The results of the cell counting (FIG. 14(B)) indicate that, similar to sodium butyrate, NBM-HD-3 inhibits cell growth.

[2] = system: transgenic mouse model of spinal and bulbar muscular atrophy; details: cited from earlier work
[3] = system: human giloblastoma DBTRG-05MG cancer cells; experiment: Growth and morphology of human giloblastoma DBTRG-05MG cancer cells; assay type: cell-based; details: NBM-HD-1 2.5, 5, 10 μg/mL or 4 mM sodium butyrate, 72 hours
Method: The human giloblastoma DBTRG-05MG cancer cells were cultured in RPMI medium 1640 (Gibco) supplemented with penicillin G, streptomycin sulphate, 0.5 mM of L-glutamine and 10% fetal bovine serum (FBS; Gibco), 100 mh/L sodium pyruvate (Gibco), and 1% NEAA (Gibco) at 37° C., 5% CO2 and 95% relative humidity. For these experiments, the cells were seeded at a density of 3×10^5 per well of 6-well plates. After 24 hours, the cells were treated with different concentrations of NBM-HD-1 and 4 mM sodium butyrate. The cells were observed and counted after 72 hours. […] In 05MG cells (FIG. 7(A)), after incubation with 2.5 μg/mL (FIG. 7(A)-b), 5 μg/mL (FIG. 7(A)-c) and 10 μg/mL (FIG. 7(A)-d) of NBM-HD-1 for 72 hours, the density of the cells reduced dramatically in comparison with that of the control group (FIG. 7(A)-a). The 05MG cells in the experimental group also changed to become longer than those in the control group.

acetylated histone H4 = experiment: Western blotting of hyperacetylated histone H4 in C6 glioma cells; assay type: cell-based, rat
Method: Accumulation of hyperacetylated histone H4 was analyzed in the cell lysates by using Western Blotting and the antibody directed against acetylated histone H4 (Upstate). The C6 glioma cells were seeded at a density of 1×10^6 per 10 cm culture dish. After 24 hours, the cells were treated with 10 μg/mL of NBM-HD-1 or 4 mM sodium butyrate for several hours. The whole-cell lysates were prepared by using denaturing SDS sample buffer and then separated on 15% SDS-polyacrylamide gels. […] The amount of acetylated histones was hardly detectable in untreated C6 glioma cells. The amount of acetylated histone H4 of the cells treated with 4 mM sodium butyrate for 2 hours increased. Sodium butyrate was then removed from the culture medium. After 6 hours, the amount of acetylated histone H4 decreased. The accumulation of acetylated histone H4 increased in the cells treated with NBM-HD-1 for 2 hours. […] The highest histone acetylation appeared at 6 hours after the compound had been removed. […] Because NBM-HD-1 is more hydrophobic than sodium butyrate, NBM-HD-1 can be retained in the cells longer than sodium butyrate and continuously induce the acetylation of histone H4.

[4] = compound 2.5, 5, 7.5, 10 μg/mL or 4 mM sodium butyrate, 72 hours

For `CN(C)c1ccc(C(=O)NCCCCCCC(=O)NO)cc1` [M344], the “up-regulation of SMN2 protein expression” value (SMN2 protein) is listed as “up to 7 fold”.

In the case of `CC(/C=C/C(=O)NO)=C\[C@@H](C)C(=O)c1ccc(N(C)C)cc1` [Trichostatin A], the “cyclin D1 degradation” value (cyclin D1) is given as “induce ubiquitin-dependent cyclin D1 degradation”.

In the case of `COc1cc2c(c(O)c1CCC(C)(C)O)C(=O)C[C@@H](c1ccc(OC)c(OC)c1C/C=C(\C)CCCC(C)(C)O)O2` [NBM-HD-3], the “morphology of MCF-7 cancer cells” value ([1]; 2.5, 5, 7.5, 10 μg/mL, 72 hours) is reported as “change their morphology” and the “growth of MCF-7 cancer cells” value [1, 4] is reported as “can inhibit the growth of MCF-7 cancer cells in a dose-dependent manner”.

For `CCCC(=O)[O-].[Na+]` [sodium butyrate, reference compound], the phenotypic expression [2] is listed as “ameliorates phenotypic expression”, the “growth of 05MG cancer cells” value [3] is listed as “could inhibit the proliferation of 05MG cancer cells” and the “accumulation of hyperacetylated histone H4” value (acetylated histone H4; 10 μg/mL NBM-HD-1 or 4 mM sodium butyrate, 2 hours) is listed as “can increase the accumulation of hyperacetylated histone H4”. For the same molecule, the “amount of acetylated histone H4 after removal of the compound” value (acetylated histone H4; after 2 hours treatment and removal from the culture medium, up to 6 hours) was “decreased”, the “growth of MCF-7 cancer cells” value ([1]; NBM-HD-1 2.5, 5, 10 μg/mL or 4 mM sodium butyrate, observed after 48 hours, counted after 96 hours) was “able to inhibit the growth of MCF-7 cells” and the “growth of MCF-7 cancer cells” value [1, 4] was “able to inhibit the growth of MCF-7 cells”.
